This note sets out measurements from the NIST ThermoML archive (doi:10.1021/je900021g).

The conditions of the series: Crystal; DTA.

SMILES strings stand for the structures. Numbers after ± are expanded uncertainties.

As for `O=C(O)CCC(=O)O` [butanedioic acid], the Normal melting temperature came out at 188 ± 1 °C.
